According to ChEMBL document CHEMBL4330075, “Discovery of Novel Quinoline-Chalcone Derivatives as Potent Antitumor Agents with Microtubule Polymerization Inhibitory Activity” (J Med Chem, 2019):
Converted amounts (≈) assume the structure as drawn.

How the values were obtained:
K562 [1] = assay: Cell cycle arrest in human K562 cells assessed as accumulation of cells at S phase at 5 nM after 48 hrs by propidium iodide staining-based flow cytometric analysis (reference value: 36.27%); type: functional
K562 [2] = assay: Induction of apoptosis in human K562 assessed as late apoptotic cells at 10 nM after 48 hrs by Annexin V-APC/propidium iodide staining-based flow cytometric analysis (reference value: 1.30%); type: functional
HepG2 = assay: cells; settings: Homo sapiens, HepG2, 72 h
[3] = Hepatotoxicity in ICR mouse xenografted with […] cells at 10 to 20 mg/kg, iv qd for 21 consecutive days by H and E staining-based assay; type: toxicity, organism-based; settings: in vivo
Tubulin = Tubulin (Sus scrofa, UniProt P02554+P02550); assay: Inhibition of porcine brain tubulin polymerization measured every 2 mins for 60 mins by spectrophotometric analysis
[4] = Cytotoxicity against human MDA-MB-231 cells assessed as growth inhibition at 10 nM after 48 hrs; type: cell-based; settings: read-out: GI
[5] = Aqueous solubility in pH 7.4 phosphate buffer by HPLC analysis; type: physicochemical
K562 [6] = assay: Induction of apoptosis in human K562 assessed as necrotic cells at 10 nM after 48 hrs by Annexin V-APC/propidium iodide staining-based flow cytometric analysis (reference value: 1.92%); type: functional
[7] = Renal toxicity in ICR mouse xenografted with […] cells at 10 to 20 mg/kg, iv qd for 21 consecutive days by H and E staining-based assay; type: organism-based; settings: in vivo
K562 [8] = assay: Induction of apoptosis in human K562 assessed as late apoptotic cells at 5 nM after 48 hrs by Annexin V-APC/propidium iodide staining-based flow cytometric analysis (reference value: 1.30%); type: functional
[9] = Toxicity in iv dosed ICR mouse assessed as mouse survival for 14 days; type: organism-based; settings: in vivo
[10] = Toxicity in ICR mouse assessed as mouse survival at 512 mg/kg, iv for 14 days relative to control; type: organism-based; settings: in vivo
[11] = Toxicity in ICR mouse assessed as mouse survival at 1000 mg/kg, iv for 14 days relative to control; type: organism-based; settings: in vivo
[12] = Selectivity index, ratio of IC50 for human LO2 cells to IC50 for human HepG2 cells; type: toxicity; settings: LO2 cells and HepG2 cells, read-out: Ratio IC50

In the case of COc1ccc(/C=C(\C)C(=O)c2cc(C)nc3ccccc23)cc1O, the Activity (K562 [1]) is reported as 31.55%, the Activity (K562 [2]) is reported as 11.4% and the IC50 (HepG2) is reported as 15 nM. For the same compound, the Activity [3] was “Non-Toxic”, the IC50 (Tubulin) was 1710 nM and the inhibition at 48 h, 0.01 µM [4] was under 10%. The solubility [5] was 16 µg/mL (≈ 48 µM), the Activity (K562 [6]) was 2.77% and the Activity [7] was “Non-Toxic”. It also gave an Activity (K562 [8]) of 4.34%, an LD50 at 336 h [9] of 666 mg/kg and a survival at 336 h [10] of 80%. It also gave a survival at 336 h [11] of 10% and a selectivity ratio [12] of 65.8.
